# Source: US9708307B2, “Heterocyclic acetamide compound” (ASTELLAS PHARMA INC., priority 2013, dated 2017)
# Experiments:
# dopamine D1 receptor = molecular target: T1, dopamine D1 receptor (Homo sapiens, UniProt P21728); test: Evaluation of positive allosteric modulating activity: leftward shift of dopamine dose-response curve (cAMP) in CHO cells stably expressing human dopamine D1 receptor; type: cell-based; details: extrapolated by linear function from dopamine EC50 at each test drug concentration
# T1 construct: expressed in transfected cells
# Method: The composition of a buffer used in Test Example 1 is as follows.
# Buffer for assay=αMEM containing 1 μM IBMX.
# Buffer for dilution=αMEM containing 1 μM IBMX and 0.8 mM ascorbic acid.
# The positive allosteric modulating activity of the compound of the present invention was evaluated according to the ratio of the leftward shift in a dopamine dose-response curve.
# The leftward shift means that a dose-response curve of dopamine, in which the logarithm of a dose is on the horizontal axis (X-axis) and a response (cAMP concentration in this test) is on the vertical axis (Y-axis), shifts in parallel in the negative direction of the X-axis by the administration of a positive allosteric modulator.
# The coding sequences of a dopamine D1 receptor in a human (Accession No.: NM_000794.3) were amplified by PCR and subcloned into a pEF-BOS vector. The resulting construct was transfected to CHO (-dhrf) cells (ATCC No.: CRL-9096) using Lipofectamine 2000 (Invitrogen Inc.). The clones stably transfected were obtained by selection using 100 nM MTX. The obtained cell clones were maintained in αMEM containing 10% FBS, 1 mg/mL penicillin, and 1 U/streptomycin.
# Dose-Response Curve of Dopamine Using test drug was drawn on the basis of the following experiments.
# A buffer for assay of a test drug was serially diluted (concentrations 0.48 μM to 40 μM, 3-fold dilutions). The serially diluted solutions of the test drug were dispensed in each portion of 2.5 μL to black 384-well plates (Becton Dickinson, Inc.).
# CHO cells stably expressing a dopamine D receptor of a human were seeded in each portion of 5 μL in each well at a density of 5000 cells/well, centrifuged in a centrifuge for a plate (05PR-22, Hitachi Co., Ltd., 800 rpm), and then allowed to stand for 10 minutes.
# Serially diluted solutions of dopamine were prepared from a DMSO solution of dopamine (Sigma Co.) with a buffer for dilutions (concentrations 0.018 μM to 13.2 μM, 3-fold dilutions), and the serially diluted solutions of dopamine were dispensed in portions of 2.5 μL to each well of a plate.
# The plate was stirred using a plate shaker (Sanko Junyaku (mx-5)) and then allowed to stand at room temperature for 20 minutes (final concentration: test drug 0 μM to 10 μM, dopamine 0 μM to 3.3 μM, 3-fold dilutions).
# cAMP was quantified using a cAMP femto 2 kit (Sceti Medical Labo K. K.) by the method described in the materials appended in the kit. A kit reagent cAMP-d2 solution and a kit reagent Anti cAMP-Cryptate solution were added in each portion of 5 μL to each well of the above-described plate, and the reaction was stopped. After incubating the plate at room temperature for 1 hour, the fluorescent intensity was measured (an excitation wavelength of 320 nm and a fluorescent wavelength of 665 nm) using a plate reader (2103 Multilabel Reader (registered trademark EnVision), PerkinElmer, Inc.).
# As a control group, a well without addition of dopamine was taken as 0% and a well with a dopamine final concentration of 3.3 μM was taken as 100%.
# The dose-response curve of dopamine was drawn on the basis of the experiment carried out in the same manner as in (1) without the addition of a test drug.
# In order to quantitatively compare the activity of the test drug, the activity was evaluated by EC50 2-fold potentiation.
# In the present specification, “EC50 2-fold potentiation” is the test drug concentrations that enhanced the EC50 two-fold in the dose-response curve (2) of dopamine.
# From the dose-response curve (1) of dopamine in the presence of the test drug at each concentration, the EC50 at the test drug concentration was obtained. From the correlation between the concentration of the test drug and the EC50, EC50 2-fold potentiation was calculated by extrapolation by a linear function (straight line).
# Further, the EC50 value was calculated from the dose-response curves (1) and (2) of dopamine, using non-linear regression analysis. […]
# ddY male mice = test: Y-maze test: improvement effect on cognitive impairment caused by MK-801 (spontaneous alternation behavior); type: in vivo; details: oral, once, one hour before test, MK-801 0.15 mg/kg i.p. 20 minutes before
# Method: The improvement effect of the compound of the present invention on cognitive impairment was evaluated using a Y-maze test which is an experiment system of alternation behavior.
# As a Y-maze, a maze, in which three tracks having a length of one arm of 40 cm, a height of a wall of 13 cm, a width of a bottom of 3 cm, and a width of a top of 10 cm are each joined in the Y shape at a degree of 120, was used. […]
# The above-described mice were allowed to explore freely for 8 minutes after being placed at an end of one track in the Y-maze, and the track and the sequence in which the mice entered were recorded. The number of times the mice entered within the measurement time was counted, and taken as a total entry number. Among these, a combination in which the mice successively entered different three tracks (for example, when taking three arms as a, b, and c, respectively, a case where the order of the arm that entered was “abccbacab” was counted as 4, inclusive of overlapping) was considered as a spontaneous alternation behavior number. The spontaneous alternation behavior rate was calculated by the following calculation and used as an index for a spontaneous alternation behavior: Spontaneous alternation behavior rate=spontaneous alternation behavior number/(total number of entries−2)×100 […]
# The measured values were expressed in average values±standard errors for each group. […]
# T1 sequence (P21728 whole entry): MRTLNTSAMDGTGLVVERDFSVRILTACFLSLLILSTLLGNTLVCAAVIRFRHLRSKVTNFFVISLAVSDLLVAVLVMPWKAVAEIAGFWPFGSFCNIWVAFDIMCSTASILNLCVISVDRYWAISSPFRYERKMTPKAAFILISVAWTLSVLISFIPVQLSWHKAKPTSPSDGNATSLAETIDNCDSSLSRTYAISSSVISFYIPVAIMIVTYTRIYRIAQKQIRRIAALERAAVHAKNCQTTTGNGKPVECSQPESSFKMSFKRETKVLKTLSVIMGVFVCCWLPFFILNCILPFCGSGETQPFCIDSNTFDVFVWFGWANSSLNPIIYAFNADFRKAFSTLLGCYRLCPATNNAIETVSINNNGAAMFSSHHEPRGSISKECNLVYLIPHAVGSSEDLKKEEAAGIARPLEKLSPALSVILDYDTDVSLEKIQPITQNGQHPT
Compound,Data 1: EC50 2-fold potentiation (test drug concentration that enhanced the dopamine EC50 two-fold) (dopamine D1 receptor) [nM],Data 2: effective concentration (improved the spontaneous alternation behavior) (ddY male mice) [mg/kg]
CN(Cc1nc2cc(C(F)(F)F)ccc2[nH]1)C(=O)Cn1c(=O)oc2ccc(Cl)c(F)c21 [Example 17],470,–
CN(Cc1nc2cc(Cl)c(F)cc2[nH]1)C(=O)Cn1c(=O)oc2ccc(Cl)cc21.Cl [Example 14],1700,–
CN(Cc1nc2cc(Br)ccc2[nH]1)C(=O)Cn1c(=O)oc2ccc(Cl)cc21 [Example 20],440,1.0
"CN(Cc1nc2cc(C(F)(F)F)ccc2[nH]1)C(=O)Cn1c(=O)oc2ccc(Cl)cc21.Cl [Example 1, 2-(5-chloro-2-oxo-1,3-benzoxazol-3 (2H)-yl)-N-methyl-N-{[5-(trifluoromethyl)-1H-benzimidazol-2-yl]methyl}acetamide hydrochloride]",460,0.1
"CN(Cc1nc2cc(Cl)c(Cl)cc2n1CCO)C(=O)Cn1c(=O)oc2ccc(Cl)cc21.Cl [Example 7, 2-(5-chloro-2-oxo-1,3-benzoxazol-3 (2H)-yl)-N-{[5,6-dichloro-1-(2-hydroxyethyl)-1H-benzimidazol-2-yl]methyl}-N-methylacetamide hydrochloride]",100,–
COc1cc2[nH]c(CN(C)C(=O)Cn3c(=O)oc4ccc(Cl)cc43)nc2cc1Br.Cl [Example 15],740,–
CN(Cc1nc2cc(Cl)ccc2[nH]1)C(=O)Cn1c(=O)oc2ccc(Cl)cc21.Cl [Example 12],1000,–
CN(Cc1nc2cc(C3CC3)ccc2[nH]1)C(=O)Cn1c(=O)oc2ccc(C(F)(F)F)cc21 [Example 22],390,–
CN(Cc1nc2c(C(F)(F)F)cccc2[nH]1)C(=O)Cn1c(=O)oc2ccc(Cl)cc21.Cl [Example 16],620,–

# Now from value to compound, other results behind:
Data 1: EC50 2-fold potentiation (test drug concentration that enhanced the dopamine EC50 two-fold) (dopamine D1 receptor) [nM],Compound,Data 2: effective concentration (improved the spontaneous alternation behavior) (ddY male mice) [mg/kg]
450,CN(Cc1nc2cc(Cl)ccc2[nH]1)C(=O)Cn1c(=O)oc2ccc(C(F)(F)F)cc21 [Example 25],–
300,CN(Cc1nc2cc(Cl)c(Cl)cc2n1CC(C)(C)O)C(=O)Cn1c(=O)oc2ccc(Cl)cc21 [Example 37],–
400,CN(Cc1nc2c(C(F)(F)F)cccc2[nH]1)C(=O)Cn1c(=O)oc2ccc(C(F)(F)F)cc21 [Example 39],–
460,CN(Cc1nc2cc(C(F)(F)F)ccc2[nH]1)C(=O)Cn1c(=O)oc2ccc(C(F)(F)F)c(F)c21 [Example 27],–
270,Cc1cc2nc(CN(C)C(=O)Cn3c(=O)oc4ccc(Cl)cc43)[nH]c2cc1Cl [Example 30],–
990,CN(Cc1nc2c(Cl)cccc2[nH]1)C(=O)Cn1c(=O)oc2ccc(Cl)cc21 [Example 34],–
370,CN(Cc1nc2cc(Cl)ccc2[nH]1)C(=O)Cn1c(=O)oc2ccc(OC(F)(F)F)cc21 [Example 26],–
1100,CN(Cc1nc2cc(OC(F)(F)F)ccc2[nH]1)C(=O)Cn1c(=O)oc2ccc(Cl)cc21 [Example 31],–
